Data as given in patent publication EP4818176A1, “TETRACYCLIC DERIVATIVE INHIBITOR, AND PREPARATION METHOD AND USE THEREFOR” (Shanghai Hansoh Biomedical Co., Ltd., priority 2023, dated 2025).
Where two headings read alike, the source gives them in different places.

Tests used:
[1] = molecular target: T1, PRMT5/MEP50-MTA protein complex (Homo sapiens, UniProt O14744); experiment: Thermal shift assay: thermal stability (melting temperature) of PRMT5/MEP50-MTA protein complex; assay type: binding; conditions: final compound concentration 8 µM; 2 µM PRMT5/MEP50, 2 µM MTA; Tm minus Tm of DMSO vehicle control
T1 construct: purchased Viva Biotech
T1 sequence (O14744 whole entry): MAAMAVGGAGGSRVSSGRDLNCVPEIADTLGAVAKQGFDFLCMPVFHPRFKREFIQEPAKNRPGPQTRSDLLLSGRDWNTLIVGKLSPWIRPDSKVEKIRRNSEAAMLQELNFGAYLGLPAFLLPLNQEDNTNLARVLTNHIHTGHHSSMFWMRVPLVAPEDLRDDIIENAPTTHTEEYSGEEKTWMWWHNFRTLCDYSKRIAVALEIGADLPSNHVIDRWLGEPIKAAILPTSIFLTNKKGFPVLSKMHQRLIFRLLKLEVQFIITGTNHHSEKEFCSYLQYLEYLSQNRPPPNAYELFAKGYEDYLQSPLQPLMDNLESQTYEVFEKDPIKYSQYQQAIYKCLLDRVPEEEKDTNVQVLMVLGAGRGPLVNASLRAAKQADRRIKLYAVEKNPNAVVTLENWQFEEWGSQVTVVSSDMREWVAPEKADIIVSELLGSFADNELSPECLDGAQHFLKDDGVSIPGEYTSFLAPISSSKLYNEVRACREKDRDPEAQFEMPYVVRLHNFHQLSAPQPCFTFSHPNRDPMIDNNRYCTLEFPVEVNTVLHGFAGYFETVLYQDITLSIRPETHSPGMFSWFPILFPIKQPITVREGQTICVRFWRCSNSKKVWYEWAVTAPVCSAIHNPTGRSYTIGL
T1 sequence (Q9BQA1 whole entry partner): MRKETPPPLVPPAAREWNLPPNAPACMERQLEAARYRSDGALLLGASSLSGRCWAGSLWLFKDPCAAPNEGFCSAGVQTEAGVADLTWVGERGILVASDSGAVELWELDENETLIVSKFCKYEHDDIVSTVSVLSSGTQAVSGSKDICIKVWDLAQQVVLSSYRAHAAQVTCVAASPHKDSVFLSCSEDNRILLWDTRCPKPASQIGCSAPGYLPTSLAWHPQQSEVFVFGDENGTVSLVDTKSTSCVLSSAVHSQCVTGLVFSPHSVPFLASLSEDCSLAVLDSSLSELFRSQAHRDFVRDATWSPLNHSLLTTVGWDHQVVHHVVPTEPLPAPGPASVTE
Description: Test Example 1: Determination of the ability of the compounds of the present invention to improve the thermal stability (melting temperature) of the PRMT5/MEP50-MTA protein complex.
1 Experimental objective: The objective of this test example is to determine the ability of the compound to improve the thermal stability of the PRMT5/MEP50-MTA protein complex, resulting in an increase in the protein melting temperature. 2 Experimental instruments: Quantitative PCR instrument (Quantstudio6 Flex) was purchased from Life Technologies; pipettes were purchased from Eppendorf or Rainin. 3 Experimental reagents and consumables: PRMT5/MEP50 protein was prepared by Viva Biotech; HEPES was purchased from Thermo Fisher Scientific (Cat. No. 15630080); DTT was purchased from Sigma (Cat. No. 43816-10ml); sodium chloride was purchased from Invitrogen (Cat. No. AM9760G); Protein Thermal Shift™ Dye Kit was purchased from Thermo Fisher Scientific (Cat. No. 4461146); methylthioadenosine (MTA) was purchased from Sigma (Cat. No. D5011). 4 Experimental method: In this experiment, the thermal shift method was used to measure the change in the melting temperature (Tm) of the PRMT5/MEP50-MTA protein complex before and after compound binding, thereby characterising the ability of the compound to improve the thermal stability of the PRMT5/MEP50-MTA protein complex. A solution containing 50 mM HEPES, 10 mM DTT, 2 µM MTA, SYPRO Orange and 250 mM NaCl was prepared as the experimental buffer. Human PRMT5/MEP50 protein was added to a final concentration of 2 µM, and the mixture was incubated at room temperature for 30 minutes. The above reaction mixture was aliquoted into 8-strip PCR tubes at 19.5 µL per tube. Then 0.5 µL of test compound or DMSO was added to each tube, providing a total reaction volume of 20 µL and a final compound concentration of 8 µM. 2.5% DMSO was set as the vehicle control. After incubation at room temperature for 10 minutes, the PCR tubes were placed in a PCR instrument, and the melt curve function was selected to measure the melting temperature of the PRMT5/MEP50-MTA protein complex in different treatment groups (heated from 25°C to 95°C, 0.03°C/s). 5 Experimental data processing method: The experimental data files from the PCR instrument were imported into the thermal shift software to obtain the melting temperature (Tm) for each treatment group.

HCT116 wild-type cells = experiment: Cell proliferation inhibition (CellTiter-Glo), HCT116 wild-type cells; assay type: cell-based
Description: (§1) Test Example 2: Determination of the inhibitory effect of the compounds of the present invention on the proliferation activity of HCT116 and MTAP Knockout HCT116 cells.
(§2) 1 Experimental objective: The objective of this test example is to determine the inhibitory effect of the compound on the proliferation activity of HCT116 wild-type and HCT116 MTAP knockout cells. 2 Experimental instruments: Centrifuge (Eppendorf 5810R); microplate reader (BioTek Synergy H1 or PerkinElmer Envision); pipette (Eppendorf or Rainin). 3 Experimental reagents: HCT116 and MTAP Knockout HCT116 cells were purchased from Nanjing Cobioer; Cell Titer-Glo was purchased from Promega (Cat. No. G7573); McCoy'5A was purchased from Gibco (Cat. No. 12330031); FBS was purchased from Gibco (Cat. No. 10091148); PBS was purchased from Gibco (Cat. No. 10010023); trypsin was purchased from Gibco (Cat. No. 25200056); cell culture plates were purchased from Corning (Cat. No. 3610). 4 Experimental method: HCT116 and MTAP Knockout HCT116 cells were cultured in McCoy'5A medium containing 10% FBS until an appropriate cell density was reached. The cells were then collected and adjusted to a suitable concentration using complete medium. The cell suspension was seeded into a 96-well plate at 90 µL per well and allowed to adhere overnight in a 37°C, 5% CO2 incubator. Compound solutions of various concentrations were prepared using DMSO and culture medium, with a vehicle control set. The compound solutions were added to the 96-well plate at 10 µL per well, and the plate was incubated in a 37°C, 5% CO2 incubator for an additional 72-240 hours. After incubation, CellTiter-Glo solution was added, and the mixture was mixed uniformly by shaking, followed by incubation in the dark for 10 to 30 minutes. Luminescence was measured using a Synergy H1 or Envision microplate reader. 5 Experimental data processing method: The inhibition rate was calculated using the luminescence signal values, and the concentrations along with the inhibition rates were subjected to non-linear regression curve fitting using Graphpad Prism software to obtain the IC50 values.

[2] = system: MTAP Knockout HCT116 cells; experiment: Cell proliferation inhibition (CellTiter-Glo), HCT116 MTAP knockout cells; assay type: cell-based; conditions: for Selectivity: HCT116 IC50 versus MTAP Knockout HCT116 IC50
Description: as §1, §2

[3] = Pharmacokinetics in rats (plasma) after oral administration; assay type: in vivo; conditions: rat, po, SD rats, p.o. 5 mg/kg; for Cmax: read-out: Cmax; for MRT inf: read-out: MRT0-∞; for Tmax: read-out: tmax
Description: Test Example 4: Determination of the pharmacokinetics of the compounds of the present invention in rats (plasma) after oral administration.
1 Study objective: SD rats were used as test animals to study the pharmacokinetic behaviour of the following example compounds in rats (plasma) after oral administration at a dose of 5 mg/kg. 2 Test scheme • 2.1 Test drugs: Vehicle formula: 0.5% CMC-Na (1% Tween 80); the examples of the present invention, made in house. • 2.2 Test animals: 3 SD rats per group, male, purchased from Shanghai Bikai Keyi Biotechnology Co., Ltd., with animal license number (SCXK (Shanghai) 2018-0006, No.20180006037467). • 2.3 Administration: 3 SD rats per group, male, were fasted overnight and then respectively administered PO at a dose of 5 mg/kg and a volume of 10 mL/kg. • 2.4 Sample collection: 0.2 mL of blood was collected from the jugular vein of rats before administration and at 0, 0.25, 0.5, 1, 2, 4, 6, 8 and 24 h after administration, and placed in EDTA-K2test tubes, and the test tubes were centrifuged at 6,000 rpm at 4°C for 6 min to separate the plasma, which was stored at -80°C. The animals were fed 4 h after administration. • 2.5 Sample treatment • 1) 160 uL of acetonitrile was added to 40 uL of plasma sample for precipitation, and after mixing, the mixture was centrifuged at 3,500 × g for 5-20 minutes. • 2) 100 uL of the treated supernatant solution was taken for LC/MS/MS analysis to determine the concentration of the test compounds. • 2.6 Liquid phase analysis • Liquid phase conditions: Shimadzu LC-20AD pump;mass spectrometry conditions: AB Sciex API 4000 mass spectrometer • Chromatographic column: Phenomenex Gemiu 5 um C18 50 × 4.6 mm • Mobile phase: solution A: 0.1% formic acid in water, solution B: methanol • Flow rate: 1.0 mL/min, elution time: 0-4.0 min, with eluents as follows:
Experimental results and analysis: The main pharmacokinetic parameters were calculated using WinNonlin 8.2.

[4] = Homo sapiens, HCT-116, read-out: HCT116 IC50
[5] = Homo sapiens, HCT-116, read-out: MTAP Knockout HCT116 IC50

Nc1nc2cc3c(cc2n2cncc12)C(=O)N(Cc1ccc(C(F)(F)F)nn1)CC/C=C\3 [Example 418, (Z)-4-Amino-12-(6-(trifluoromethyl)pyridazin-3-yl)methyl-9,10,11,12-tetrahydro-13H-azocino[4,3-g]imidazo[1,5-a]quinoxalin-13-one] gave a ΔTm at 8 µM [1] of 11.5 °C, an IC50 (HCT116 wild-type cells; [4]) of 1090 nM and a Selectivity [2] of 54. It also gave an IC50 [2, 5] of 20 nM.
Work on Cn1ncc2c(N)nc3cc4c(cc3c21)C(=O)N(Cc1ccc(C(F)(F)F)cn1)CCCOC4 [Example 190, 4-Amino-1-methyl-12-((5-(trifluoromethyl)pyridin-2-yl)methyl)-1,7,9,10,11,12-hexahydro-13H-[1,5]oxazolo[7,8-g]pyrazolo[4,3-c]quinolin-13-one] yielded a ΔTm at 8 µM [1] of 12.2 °C, an IC50 (HCT116 wild-type cells; [4]) of 763 nM and a Selectivity [2] of 123. For the same molecule, the IC50 [2, 5] was 6.2 nM.
In the case of “(R, Z)-4-amino-12-(2-(trifluoromethyl)-5,8-dihydro-6H-pyrano[3,4-b]pyridin-5-yl)-9,10,11,12-tetrahydro-13H-aza[4,3-g]imidazo[1,5-a]quinoxalin-13-one [Example 158-P1]”, the “ΔTm (°C)” value [1] is reported as 12.03 °C, the IC50 (HCT116 wild-type cells; HCT116 wild-type cells, proliferation inhibition, Cell Titer-Glo, read-out: HCT116 IC50) is reported as 708 nM and the Selectivity [2] is reported as 81. The IC50 ([2]; MTAP Knockout HCT116 cells, proliferation inhibition, Cell Titer-Glo, read-out: MTAP Knockout HCT116 IC50) was 8.7 nM.
Molecule C[C@@H]1CCN([C@@H]2COCc3nc(C(F)(F)F)ccc32)C(=O)c2cc3c(cc2CO1)nc(N)c1cncn13 [Example 15-P1, (R)-4-amino-9-methyl-12-((S)-2-(trifluoromethyl)-5,8-dihydro-6H-pyrano[3,4-b]pyridin-5-yl)-9,10,11,12-tetrahydroimidazo[1,5-a][1,5]oxazolo[8,7-g]quinoxalin-13(7H)-one and (S)-4-amino-9-methyl-12-((R)-2-(trifluoromethyl)-5,8-dihydro-6H-pyrano[3,4-b]pyridin-5-yl)-9,10,11,12-tetrahydroimidazo[1,5-a][1,5]oxazolo[8,7-g]quinoxalin-13(7H)-one] has a ΔTm at 8 µM [1] of 10.1 °C.
For Cc1nc(CN2CC/C=C\c3cc4nc(N)c5cncn5c4cc3C2=O)ccc1C(F)(F)F [Example 688, (Z)-4-Amino-11-((6-methyl-5-(trifluoromethyl)pyridin-2-yl)methyl)-10,11-dihydroazo[4,3-g]imidazo[1,5-a]quinoxalin-12(9H)-one], the ΔTm at 8 µM [1] was 11.6 °C.
Nc1nc2cc3c(cc2n2cncc12)C(=O)N([C@@H]1COCc2nc(C(F)(F)F)ccc21)CC/C=C\3 (single isomer, unassigned) [Example 311-P1] showed a ΔTm at 8 µM [1] of 10.9 °C, an AUC(0-inf) ([3]; in vivo) of 1780 ng·h/mL and a half-life ([3]; in vivo) of 1.8 h. For the same molecule, the Cmax ([3]; in vivo) was 330 ng/mL, the MRT inf ([3]; in vivo) was 3.7 h and the Tmax ([3]; in vivo) was 2.3 h.
Work on CC(c1ccc(C(F)(F)F)cn1)N1CCC/C=C\c2cc3nc(N)c4cncn4c3cc2C1=O (racemic) [Example 352, (Z)-4-Amino-12-(1-(5-(trifluoromethyl)pyridin-2-yl)ethyl)-9,10,11,12-tetrahydro-13H-azo[4,3-g]imidazo[1,5-a]quinoxalin-13-one] yielded a ΔTm at 8 µM [1] of 11 °C.
Nc1nc2cc3c(cc2n2cncc12)C(=O)N(Cc1ccc(C(F)(F)F)nn1)CCC/C=C\3 [Example 391, (Z)-4-Amino-12-(6-(trifluoromethyl)pyridazin-3-yl)methyl-9,10,11,12-tetrahydro-13H-azonino[4,3-g]imidazo[1,5-a]quinoxalin-13-one] showed a ΔTm at 8 µM [1] of 10.9 °C.
Work on Nc1nc2cc3c(cc2n2cncc12)C(=O)N(C1COCc2nc(C(F)(F)F)ccc21)CCCC/C=C\3 (single isomer, unassigned) [Example 62-P1] yielded a ΔTm at 8 µM [1] of 10.8 °C, an AUC(0-inf) ([3]; male) of 800 ng·h/mL and a half-life ([3]; male) of 2.2 h. For the same molecule, the Cmax ([3]; male) was 201 ng/mL, the MRT inf ([3]; male) was 3.8 h and the Tmax ([3]; male) was 1 h.
For Nc1nc2cc3c(cc2n2cncc12)C(=O)N(C1COCc2nc(C(F)(F)F)ccc21)CCCCOC3 (stereo not shown) [Example 48, 4-Amino-13-(2-(trifluoromethyl)-5,8-dihydro-6H-pyrano[3,4-b]pyridin-5-yl)-10,11,12,13-tetrahydro-7H-imidazo [1,5-a] [1,6] oxazino [3,4-g] quinoxalin-14(9H)-one], the ΔTm at 8 µM [1] was 10.9 °C.
CC(c1ccc(C(F)(F)F)nc1)N1CCC/C=C\c2cc3nc(N)c4cncn4c3cc2C1=O (stereo not shown) [Example 415, (Z)-4-Amino-12-(1-(6-(trifluoromethyl)pyridin-3-yl)ethyl)-9,10,11,12-tetrahydro-13H-azo[4,3-g]imidazo[1,5-a]quinoxalin-13-one] gave a ΔTm at 8 µM [1] of 10.3 °C.
In the case of C[C@@H]1CCCN(Cc2ccc(C(F)(F)F)cn2)C(=O)c2cc3c(cc2C1)nc(N)c1cncn13 [Example 514-P1, (R)-4-amino-8-methyl-12-((5-(trifluoromethyl)pyridin-2-yl)methyl)-7,8,9,10,11,12-hexahydro-13H-azo[4,3-g]imidazo[1,5-a]quinoxalin-13-one], the ΔTm at 8 µM [1] is reported as 11.3 °C.
For Nc1nc2cc3c(cc2n2cncc12)C(=O)N(C1COCc2cc(C(F)(F)F)ccc21)CCC/C=C\3 (stereo not shown) [Example 167, (Z)-4-Amino-12-(7-trifluoromethylisochroman-4-yl)-9,10,11,12-tetrahydro-13H-azonino[4,3-g]imidazo[1,5-a]quinoxalin-13-one], the ΔTm at 8 µM [1] was 12.3 °C.
For CN1CCCN(Cc2ccc(C(F)(F)F)cn2)C(=O)c2cc3c(cc2C1)nc(N)c1cnn(C)c13 [Example 502, 4-Amino-1,8-dimethyl-12-((5-(trifluoromethyl)pyridin-2-yl)methyl)-7,8,9,10,11,12-hexahydro-[1,5]diazonino[7,8-g]pyrazolo[4,3-c]quinolin-13(1H)-one], the ΔTm at 8 µM [1] was 10.6 °C.
In the case of Nc1nc2cc3c(cc2n2cncc12)C(=O)N(C1COCc2nc(C(F)(F)F)ccc21)CCC/C=C\3 (stereo not shown) [Example 158, (Z)-4-Amino-12-(2-(trifluoromethyl)-5,8-dihydro-6H-pyrano[3,4-b]pyridin-5-yl)-9,10,11,12-tetrahydro-13H-azonino[4,3-g]imidazo[1,5-a]quinoxalin-13-one], the ΔTm at 8 µM [1] is reported as 11.3 °C, the AUC(0-inf) ([3]; male) is reported as 712 ng·h/mL and the half-life ([3]; male) is reported as 1.3 h. The Cmax ([3]; male) was 287 ng/mL, the MRT inf ([3]; male) was 2 h and the Tmax ([3]; male) was 0.5 h.
Nc1nc2cc3c(cc2n2cncc12)C(=O)N(C1COCc2nc(C(F)(F)F)ccc21)CCCCC3 (stereo not shown) [Example 159, 4-Amino-12-(2-(trifluoromethyl)-5,8-dihydro-6H-pyrano[3,4-b]pyridin-5-yl)-7,8,9,10,11,12-hexahydro-13H-azonino[4,3-g]imidazo[1,5-a]quinoxalin-13-one] gave a ΔTm at 8 µM [1] of 10.5 °C.
